Like-named read-outs stand apart in the source and are kept apart here.
Tests used:
[1] = cited from earlier work; for Fraction of metabolite conversion from the parent: fixed in the PopPK model
wild-type EGFR = conditions: higher potency; cited from earlier work
clinical [2] = conditions: human, in vivo
Procedure: Patients were asked to determine the time of drug intake. The collected serum and whole peripheral blood samples were stored at − 80 °C until analysis.
Several candidate PopPK models with different structures were compared based on the goodness-of-fit (GOF) plots and the objective function value (OFV) expressed as minus twice log likelihood (−2LL), and the difference in OFV between the two nested models was statistically evaluated using the chi-square test (the decrease in −2LL >3.84, p < 0.05, was considered statistically significant).
Stepwise covariate analysis was performed to evaluate the effect of covariates on clearance and volume of distribution. The significance of the effect was assessed by the −2LL value; decrease in −2LL of >3.84 (p < 0.050) for the forward addition was considered significant. The impact of body weight (BW), albumin (ALB), age (AGE), sex, aspartate aminotransferase (AST), and alanine aminotransferase (ALT) levels on CLparent/F, CLm5/F, and CLm7/F was evaluated. In addition, BW, ALB, AGE, and sex were evaluated on Vparent/F, Vm5/F, and Vm7/F. The covariates were modeled as shown in equation (c) in the power form for continuous covariates, equation (d) with log-transformation for continuous covariates with outliers, and equation (e) for categorical covariates: […]
The candidate PopPK models were evaluated by goodness of fit, ∆−2LL values, η-shrinkage, and relative standard error (RSE%). […] The uncertainty of the parameters was estimated by performing a bootstrap. The original dataset was randomly resampled to generate 1000 samples, and the parameters estimated from the successful runs were compared to those estimated from the original dataset.

clinical [3] = conditions: human, in vivo; remark: listed apart in the source
[4] = human, in vivo
Procedure: This prospective, longitudinal observational study was designed and conducted at the Ageo Central General Hospital from February 2019 to July 2020 and Keio University Hospital from June 2020 to April 2022. The primary endpoint was the association of exposures to osimertinib, AZ5104, AZ7550, or germline polymorphisms with AE severity. […] Patients who were mentally or physically incapable of providing informed consent were excluded from the study. […] The study was conducted with adherence to the Declaration of Helsinki.

[5] = cited from earlier work
[6] = in vivo
Procedure: Polymorphisms in EGFR, ABCG2, ABCB1, and POR (Online Resource, Appendix A) were analyzed using TaqMan® probe-based assays (Applied Biosystems, Foster City, CA, USA), whereas the ABCG2 polymorphism (rs2231137) was studied using the CycleavePCR® assay (TaKaRa Bio Inc., Kusatsu, Japan). The detailed genotyping method is provided in the Online Resource (Appendix A).
Germline polymorphism and the worst grade of AE occurring in each patient were analyzed for pharmacogenomics–toxicity relationship analysis.
The cut-off date for data collection was April 4, 2022. Continuous variables such as AUC0–24 and laboratory data are presented as median (interquartile range, IQR); estimates of PopPK parameters are presented as mean (standard error, SE). […] Receiver operating characteristic (ROC) curve analysis was used to evaluate the discrimination potential of AUC0–24 for grade ≥ 2 AEs. […] All p-values were two-sided, and statistical significance was set at p < 0.05.
The EGFR polymorphisms (rs2293348, rs4947492, rs11977388, rs2227983, and rs884225), ABCG2 (rs2231142 and rs2622604), ABCB1 (rs1128503, rs1045642, and rs2032582), and POR (rs17685 and rs1057868) were analyzed using Taqman® probe-based assays (Applied Biosystems, CA, USA). The probes (FAM/VIC-fluorescent) and primers for these polymorphisms were purchased from Applied Biosystems (TaqMan® SNP Genotyping Assay ID: C _ 144945_20, C _ 27876021_10, C _ 321871_10, C _ 16170352_20, and C _ 9501579_10 for EGFR polymorphisms; C _ 15854163_70 and C _ 9510352_10 for ABCG2 polymorphisms; C _ 7586662_10, C _ 7586657_20, C_11711720D_40, and C_11711720C_30 for ABCB1 polymorphisms; and C _ 8890133_30 and C _ 8890131_30 for POR polymorphisms). The real-time PCR reaction mix included 4.5 ng of DNA template diluted in 4.5 µL DNase‑Free distilled water, 5 µL TaqMan® Universal Master Mix II with UNG (Uracil-N-Glycosylase), and 0.5 µL TaqMan® SNP Genotyping Assay mix, including the primers and probes, in a total volume of 10 µL. The reactions were performed under the following conditions: UNG incubation at 50 °C for 2 min and polymerase activation at 95 °C for 10 min, followed by 50 cycles of 95 °C for 15 s and 60 °C for 60 s.
ABCG2 polymorphism (rs2231137) was studied using the CycleavePCR® assay (TaKaRa Bio Inc., Kusatsu, Shiga, Japan). The primers and probes for ABCG2 rs2231137 were designed using the CycleavePCR Assay Designer (SNPs, TaKaRa Bio Inc.): forward 5′- […]-3′; reverse 5′-[…]-3′; FAM-labeled probe 5′-(Eclipse)[…][G]TG(FAM)-3′; and HEX-labeled probe 5′-(Eclipse)TATCCCA[A]TGT(HEX)-3′. The real-time PCR reaction mix per reaction included 4 ng of DNA template diluted in 10.5 μL DNase‑Free distilled water, 12.5 μL CycleavePCR Reaction Mix, 0.5 μL each of forward and reverse primers, and 1 μL each of FAM/HEX-labeled probes in a total volume of 26 μL. The reactions were performed under the following conditions: initial denaturation at 95 °C for 10 s, followed by 50 cycles at 95 °C for 5 s, 55 °C for 10 s, and 72 °C for 20 s.
After real-time PCR, the result of the allelic discrimination was plotted by reading the generated fluorescence using CFX Manager Software version 3.1 (Bio-Rad Laboratories). For quality control, all the polymorphisms were genotyped more than twice.

[7] = Osimertinib AUC0-24 <4938 ng/mL*h, n = 29, any grade
[8] = Osimertinib AUC0-24 <4938 ng/mL*h, n = 29, grade ≥2
[9] = Osimertinib AUC0-24 ≥4938 ng/mL*h, n = 22, any grade
[10] = Osimertinib AUC0-24 ≥4938 ng/mL*h, n = 22, grade ≥2

C=CC(=O)Nc1cc(Nc2nccc(-c3c[nH]c4ccccc34)n2)c(OC)cc1N(C)CCN(C)C [AZ5104]
Half-life [1]: 52.6 h
Fraction of metabolite conversion from the parent [1]: 25%
Potency against wild-type EGFR compared with the parent compound (wild-type EGFR): 15 fold
Clearance CL/F (θ1, θ4, θ6) (clinical [2]): 44.41 L/h
Coefficient of variation for clearance (CL/F) (clinical [2]): 35%
Inter-occasion variance of clearance (ω^2 CL,IOV) (clinical [2]): 0.034

C=CC(=O)Nc1cc(Nc2nccc(-c3cn(C)c4ccccc34)n2)c(OC)cc1N(C)CCNC [AZ7550]
Circulating exposure of active metabolite relative to the parent compound [1]: 10%
Half-life [1]: 72.7 h
Fraction of metabolite conversion from the parent [1]: 25%
Association between AUC0–24 and grade ≥ 2 anorexia (human, in vivo): significant association
Association between AUC0–24 and grade ≥ 2 increased creatinine (human, in vivo): significant association
Association between AUC0–24 and grade ≥ 2 paronychia (human, in vivo): significant association
Sensitivity of AUC0–24 cut-off for grade ≥ 2 AEs (human, in vivo): 49%
Specificity of AUC0–24 cut-off for grade ≥ 2 AEs (human, in vivo): 90%
Area under the ROC curve for predicting grade ≥ 2 AEs using AUC0–24 (in vivo): 0.651
Cut-off AUC0–24 to predict grade ≥ 2 AEs (in vivo): 462 ng·h/mL
AUC0–24 at steady state, median (IQR) (clinical [2]): 367 (275–516) ng/mL*h
Clearance CL/F (θ1, θ4, θ6) (clinical [2]): 46.2 L/h
Coefficient of variation for clearance (CL/F) (clinical [2]): 27%

C=CC(=O)Nc1cc(Nc2nccc(-c3cn(C)c4ccccc34)n2)c(OC)cc1N(C)CCN(C)C [osimertinib]
Half-life [1]: 59.7 h
Oral bioavailability [1]: 69.8%
Association between AUC0–24 and grade ≥ 2 increased creatinine (Mann–Whitney U test): significant association
Anorexia, % of patients [7]: (10.3) %
Anorexia, No. of patients [7]: 3
Any adverse events, % of patients [7]: (100.0) %
Any adverse events, No. of patients [7]: 29
Creatinine increased, % of patients [7]: (44.8) %
Creatinine increased, No. of patients [7]: 13
Diarrhea, % of patients [7]: (58.6) %
Diarrhea, No. of patients [7]: 17
Interstitial lung disease, % of patients [7]: (0.0) %
Interstitial lung disease, No. of patients [7]: 0
Paronychia, % of patients [7]: (37.9) %
Paronychia, No. of patients [7]: 11
Anorexia, % of patients [8]: (6.90) %
Anorexia, No. of patients [8]: 2
Any adverse events, % of patients [8]: (69.0) %
Any adverse events, No. of patients [8]: 20
Creatinine increased, % of patients [8]: (0.0) %
Creatinine increased, No. of patients [8]: 0
Diarrhea, % of patients [8]: (0.0) %
Diarrhea, No. of patients [8]: 0
Interstitial lung disease, % of patients [8]: (0.0) %
Interstitial lung disease, No. of patients [8]: 0
Paronychia, % of patients [8]: (27.6) %
Paronychia, No. of patients [8]: 8
Anorexia, % of patients [9]: (18.2) %
Anorexia, No. of patients [9]: 4
Any adverse events, % of patients [9]: (100.0) %
Any adverse events, No. of patients [9]: 22
Creatinine increased, % of patients [9]: (50.0) %
Creatinine increased, No. of patients [9]: 11
Diarrhea, % of patients [9]: (45.5) %
Diarrhea, No. of patients [9]: 10
Interstitial lung disease, % of patients [9]: (4.5) %
Interstitial lung disease, No. of patients [9]: 1
Paronychia, % of patients [9]: (54.5) %
Paronychia, No. of patients [9]: 12
Anorexia, % of patients [10]: (13.6) %
Anorexia, No. of patients [10]: 3
Any adverse events, % of patients [10]: (95.5) %
Any adverse events, No. of patients [10]: 21
Creatinine increased, % of patients [10]: (18.2) %
Creatinine increased, No. of patients [10]: 4
Diarrhea, % of patients [10]: (13.6) %
Diarrhea, No. of patients [10]: 3
Interstitial lung disease, % of patients [10]: (4.5) %
Interstitial lung disease, No. of patients [10]: 1
Paronychia, % of patients [10]: (27.3) %
Paronychia, No. of patients [10]: 6
Sensitivity of AUC0–24 cut-off for grade ≥ 2 AEs (ROC curve): 51%
Specificity of AUC0–24 cut-off for grade ≥ 2 AEs (ROC curve): 90%
AUC(0-t) (clinical [3]): 5530 ng·h/mL
Association of EGFR-TKI treatment line with severe AEs [4]: higher frequency of severe AEs in patients receiving therapy as first-line treatment
Severe liver dysfunction within the observation period [4]: No patient
Patients who experienced severe AEs (grade 3 or leading to dose discontinuation) ([4]; 3 months): Approximately 25%
Patients with grade ≥ 2 skin disorders (most prevalent grade ≥ 2 AE) ([4]; 3 months): 63%
Patients with interstitial lung disease leading to treatment discontinuation ([4]; 3 months): 2.0%
Patients experiencing grade ≥ 2 adverse events [5]: over 80%
Patients experiencing grade ≥ 3 adverse events [5]: > 30%
Clearance CL/F (θ1, θ4, θ6) (clinical [2]): 17.37 L/h
Coefficient of variation for clearance (CL/F) (clinical [2]): 30%
Volume of distribution V/F (θ2, θ5, θ7) (clinical [2]): 1386 L
Vd/F (clinical [2]; Volume of distribution V/F (θ2, θ5, θ7)): 1270 L
Any grade ≥ 2 AEs in patients with ABCG2 rs2231137 G/A or A/A genotypes [6]: higher frequency
Association of ABCB1 rs1128503 C > T (C/T and T/T genotypes) with any grade ≥ 2 AEs [6]: significant association
Association of ABCB1 rs2032582 G > T/A (A/T and G/T genotypes) with any grade ≥ 2 skin disorders [6]: associated
Association of ABCB1 rs2032582 G > T/A (A/T and G/T genotypes) with grade ≥ 2 lymphocyte count decrease [6]: associated
Association of EGFR rs2293348 C > T (C/T genotype) with any severe AEs [6]: associated with any severe AEs
Association of EGFR rs2293348 C > T (C/T genotype) with grade ≥ 1 or ≥ 2 anorexia [6]: significantly associated
Association of EGFR rs4947492 G > A (A/A genotype) with any severe AEs [6]: associated with any severe AEs
Association of polymorphisms in POR with any AEs or PK [6]: not significantly associated
